Assay [1] has as its target SIRT1 (Homo sapiens, UniProt Q96EB6). As to the kind of experiment: Deacetylation activity selectivity, SIRT1. Format: biochemical. How it is done:
(§1) Fluor-De-Lys (FDL) assays were used for the examination of the deacetylation activities of sirtuins as described previously. For the detection of SIRT6 activity, the 50-μL reaction mixture contained 5 μM SIRT6, 2.5 mM NAD^+ (β-Nicotinamide adenine dinucleotide hydrate, Sigma, N1636), 75 μM RHKK-Ac-AMC (GL Biochem, Shanghai), compounds/DMSO, and assay buffer. The reactions were incubated at 37 °C for 2 h, added 50 μL stop solution (40 mM nicotinamide, 6 mg/mL trypsin) at 25 °C for 30 min. Fluorescence intensity was measured at an excitation wavelength of 360 nm and an emission wavelength of 460 nm. IC50 values were calculated in GraphPad Prism version 8.00.
(§2) Based on the above results, 8a was further investigated in this study. […] To further evaluate the selectivity of 8a for SIRT6, we examined the effect of 8a on the deacetylation activity of other HDAC family members, including HDAC1-HDAC11, SIRT1-SIRT3 and SIRT5. […] Furthermore, to confirm binding of 8a to SIRT6 in cells, we carried out the cellular thermal shift assay (CETSA). The CETSA approach builds on the thermal shift assay concept where ligand binding to its target protein enhances the target protein stability. We observed that the thermal stability of SIRT6 increased after 8a treatment (Figs. 2c, d).

The target of assay [2] is SIRT3 (Homo sapiens, UniProt Q9NTG7). The assay can be described thus: Deacetylation activity selectivity, SIRT3. Format: biochemical. The method, then:
as §1, §2

Assay [3] deals with SIRT5 (Homo sapiens, UniProt Q9NXA8). The assay can be described thus: Deacetylation activity selectivity, SIRT5. Format: biochemical. The method, then:
as §1, §2

Assay [4] has as its target HDAC3 (Homo sapiens, UniProt O15379). As to the kind of experiment: Deacetylation activity selectivity, HDAC3. Format: biochemical.
Excerpt: as §2

Assay [5] deals with HDAC6 (Homo sapiens, UniProt Q9UBN7). The assay can be described thus: Deacetylation activity selectivity, HDAC6. Format: biochemical.
Excerpt: as §2

In assay [6] the target is HDAC8 (Homo sapiens, UniProt Q9BY41). The assay can be described thus: Deacetylation activity selectivity, HDAC8. Format: biochemical.
Excerpt: as §2

In assay [7] the target is HDAC10 (Homo sapiens, UniProt Q969S8). The assay can be described thus: Deacetylation activity selectivity, HDAC10. Format: biochemical.
Excerpt: as §2

Assay [8] has as its target T1, SIRT6 mutant (V70A and F86A) (Homo sapiens, UniProt Q8N6T7, F86A/V70A).
T1 construct: The human full-length SIRT6 gene was inserted into the prokaryotic expression vector (pET-28a (+)); inferred from the pET-28a(+) vector and Ni-NTA purification of the wild-type construct); made in house; host or cells: Escherichia coli BL21 (DE3) (inferred from the wild-type protocol)
The assay can be described thus: FDL assay on SIRT6 mutant (V70A and F86A). Format: biochemical. The method, then:
as §1
To explore the interaction mechanism, we performed the molecular docking experiment between SIRT6 (PDB ID: 6QCJ) and 8a. […] 8a mainly formed hydrogen bond with the backbone amino group of D187 and the ribose hydroxyl group of the coenzyme NAD^+, and stabilized the whole system by hydrophobic interactions with key amino acids such as I8, V70, W71, F82 and F86 (Fig. 2g). To verify this binding model, the mutant (V70A and F86A) of SIRT6 was constructed by site mutation. […] Moreover, there were also some other potential binding pockets predicted by molecular docking (data not shown). Based on the prediction, we constructed other two SIRT6 mutants (E140A/R195A and T184A/S191A/P193A/E283A). […]

The subject of assay [9] is PANC-1 cells. As to the kind of experiment: MTT proliferation assay, PANC-1. The settings on record: 72 h. Format: cell-based. The method, then: BXPC-3 and PANC-1 cells were plated in 96-well plates at 5000 cells per well. After 12 h attachment, varying concentrations of 8a were added into the culture medium for 72 h. Then 10 μL MTT (5 mg/ml) solution was added into per well for 4 h at 37 °C. After removing medium, formazan crystals were dissolved in 150 µL DMSO. The cells viability was quantified by measuring the absorbance at 570 nm.

In assay [10] the test system is BXPC-3 cells. As to the kind of experiment: Colony formation assay. Format: cell-based. The settings on record: dose-dependent. How it is done:
The BXPC-3 cells were plated in six-well plates at 1000 cells per well. After 12 h, different concentrations of 8a, Gemcitabine or their combination were added for 7–10 days. The cells were fixed for 15 min with paraformaldehyde (4%) and then stained with crystal violet (0.1%) for 15 min at room temperature. Surviving colonies consisting of 50 or more cells were counted under microscope.

Assay [11] has as its target SIRT6 (Homo sapiens, UniProt Q8N6T7). The assay can be described thus: Cellular thermal shift assay (CETSA) in Hela cells. Format: cell-based. Also on record: endogenous in cells; host or cells: HeLa. The settings on record: 8a 25 μM, 6 h. How it is done: The CETSA [26] approach builds on the thermal shift assay concept where ligand binding to its target protein affects protein stability at high temperatures. Hela cells were plated in 100 mm plates. After 12 h attachment, Hela cells were incubated with 8a (25 μM) for 6 h, and then the cells were digested with trypsin and collected. The collected cells were subsequently aliquoted into […], and incubated each part at different temperatures (40, 41, 42, 43, 44, 45, 46, 47, 48, 49 and 50 °C) for 3 min. The heated cells were then snap frozen in liquid nitrogen three times to lyse. After that, the lysed cells were then centrifuged at 12,000 rpm for 20 min. Then the level of SIRT6 was detected by western blot.

Where only a bound is given, the exact number is not on record here.

The results in this text go back to paper PMC10403574, “Discovery of a pyrrole-pyridinimidazole derivative as novel SIRT6 inhibitor for sensitizing pancreatic cancer to gemcitabine” (Cell Death & Disease, 2023).

T1 sequence (Q8N6T7 whole entry V70A/F86A): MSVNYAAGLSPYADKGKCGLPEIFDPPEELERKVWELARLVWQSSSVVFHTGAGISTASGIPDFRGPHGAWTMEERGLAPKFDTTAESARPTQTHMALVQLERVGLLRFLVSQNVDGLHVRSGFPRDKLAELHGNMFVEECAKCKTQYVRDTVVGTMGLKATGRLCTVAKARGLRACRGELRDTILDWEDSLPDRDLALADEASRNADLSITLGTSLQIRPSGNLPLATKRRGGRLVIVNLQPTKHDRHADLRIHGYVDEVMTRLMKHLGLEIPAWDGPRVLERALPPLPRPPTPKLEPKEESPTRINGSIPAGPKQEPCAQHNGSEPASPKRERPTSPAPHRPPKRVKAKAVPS
Chain of SIRT5 (Q9NXA8 37-310, species assumed): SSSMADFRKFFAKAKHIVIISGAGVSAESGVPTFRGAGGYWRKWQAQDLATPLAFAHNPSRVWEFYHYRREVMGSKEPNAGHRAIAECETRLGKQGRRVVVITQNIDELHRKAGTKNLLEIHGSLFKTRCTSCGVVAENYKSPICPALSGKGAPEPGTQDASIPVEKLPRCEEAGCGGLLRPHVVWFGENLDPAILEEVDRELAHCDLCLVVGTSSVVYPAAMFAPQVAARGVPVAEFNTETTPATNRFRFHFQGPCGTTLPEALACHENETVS
Chain of HDAC3 (O15379 whole entry, species assumed): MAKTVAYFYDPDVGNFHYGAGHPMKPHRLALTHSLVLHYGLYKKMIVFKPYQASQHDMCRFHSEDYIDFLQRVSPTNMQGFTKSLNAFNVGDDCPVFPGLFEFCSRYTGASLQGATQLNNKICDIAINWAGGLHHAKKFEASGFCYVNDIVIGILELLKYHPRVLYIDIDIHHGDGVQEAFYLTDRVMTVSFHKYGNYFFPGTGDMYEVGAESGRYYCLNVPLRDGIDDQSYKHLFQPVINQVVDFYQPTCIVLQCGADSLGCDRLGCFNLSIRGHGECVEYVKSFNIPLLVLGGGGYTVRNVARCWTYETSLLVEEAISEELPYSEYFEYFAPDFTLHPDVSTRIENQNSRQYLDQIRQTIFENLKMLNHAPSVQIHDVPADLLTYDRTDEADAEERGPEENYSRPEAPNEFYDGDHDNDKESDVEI
Chain of HDAC3 (Q9Y618 395-489 partner limits assumed, species assumed): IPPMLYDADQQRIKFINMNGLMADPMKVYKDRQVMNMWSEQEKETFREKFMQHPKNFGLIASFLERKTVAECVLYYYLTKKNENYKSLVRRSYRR
Chain of SIRT3 (Q9NTG7 whole entry, species assumed): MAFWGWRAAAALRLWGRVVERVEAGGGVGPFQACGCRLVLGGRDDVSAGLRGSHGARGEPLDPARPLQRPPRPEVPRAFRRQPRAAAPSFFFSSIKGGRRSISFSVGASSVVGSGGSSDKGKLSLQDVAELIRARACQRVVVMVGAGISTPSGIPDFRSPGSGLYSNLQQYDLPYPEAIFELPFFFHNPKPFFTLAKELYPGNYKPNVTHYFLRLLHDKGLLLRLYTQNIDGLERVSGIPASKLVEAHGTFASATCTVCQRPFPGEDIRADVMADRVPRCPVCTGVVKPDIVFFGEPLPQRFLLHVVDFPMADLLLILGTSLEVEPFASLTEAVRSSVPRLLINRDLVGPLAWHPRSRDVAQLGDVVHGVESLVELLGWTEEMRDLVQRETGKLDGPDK
Chain of HDAC6 (Q9UBN7 whole entry, species assumed): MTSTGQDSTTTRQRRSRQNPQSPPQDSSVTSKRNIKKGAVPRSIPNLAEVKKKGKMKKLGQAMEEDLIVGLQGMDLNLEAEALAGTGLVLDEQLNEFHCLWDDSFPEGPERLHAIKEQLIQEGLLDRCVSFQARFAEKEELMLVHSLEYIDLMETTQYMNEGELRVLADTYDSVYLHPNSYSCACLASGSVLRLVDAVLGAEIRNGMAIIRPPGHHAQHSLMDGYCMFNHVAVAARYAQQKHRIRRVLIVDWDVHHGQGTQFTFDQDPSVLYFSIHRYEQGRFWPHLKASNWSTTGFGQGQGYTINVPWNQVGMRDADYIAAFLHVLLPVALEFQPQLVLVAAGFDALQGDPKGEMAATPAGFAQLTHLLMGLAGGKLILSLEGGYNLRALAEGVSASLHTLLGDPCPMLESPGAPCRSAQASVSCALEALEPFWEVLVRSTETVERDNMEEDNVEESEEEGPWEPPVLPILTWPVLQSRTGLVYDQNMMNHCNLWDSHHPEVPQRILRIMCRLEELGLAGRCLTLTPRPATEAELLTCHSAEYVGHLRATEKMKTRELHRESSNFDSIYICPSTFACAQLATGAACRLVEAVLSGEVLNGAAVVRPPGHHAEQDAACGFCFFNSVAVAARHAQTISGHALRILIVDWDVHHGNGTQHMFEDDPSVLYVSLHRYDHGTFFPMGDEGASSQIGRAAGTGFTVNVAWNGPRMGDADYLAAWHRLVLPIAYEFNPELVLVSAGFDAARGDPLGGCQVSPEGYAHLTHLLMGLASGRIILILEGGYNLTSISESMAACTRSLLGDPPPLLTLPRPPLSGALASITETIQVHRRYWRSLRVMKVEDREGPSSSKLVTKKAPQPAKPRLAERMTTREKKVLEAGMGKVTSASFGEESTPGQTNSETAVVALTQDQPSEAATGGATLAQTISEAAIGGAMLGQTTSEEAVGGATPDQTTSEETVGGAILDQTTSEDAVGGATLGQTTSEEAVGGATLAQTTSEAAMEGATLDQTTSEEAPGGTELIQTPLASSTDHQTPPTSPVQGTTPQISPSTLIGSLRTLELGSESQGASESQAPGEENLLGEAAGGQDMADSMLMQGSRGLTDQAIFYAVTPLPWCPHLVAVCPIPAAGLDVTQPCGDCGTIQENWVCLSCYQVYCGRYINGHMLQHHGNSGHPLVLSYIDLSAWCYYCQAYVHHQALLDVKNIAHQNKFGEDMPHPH
Chain of HDAC8 (Q9BY41 whole entry, species assumed): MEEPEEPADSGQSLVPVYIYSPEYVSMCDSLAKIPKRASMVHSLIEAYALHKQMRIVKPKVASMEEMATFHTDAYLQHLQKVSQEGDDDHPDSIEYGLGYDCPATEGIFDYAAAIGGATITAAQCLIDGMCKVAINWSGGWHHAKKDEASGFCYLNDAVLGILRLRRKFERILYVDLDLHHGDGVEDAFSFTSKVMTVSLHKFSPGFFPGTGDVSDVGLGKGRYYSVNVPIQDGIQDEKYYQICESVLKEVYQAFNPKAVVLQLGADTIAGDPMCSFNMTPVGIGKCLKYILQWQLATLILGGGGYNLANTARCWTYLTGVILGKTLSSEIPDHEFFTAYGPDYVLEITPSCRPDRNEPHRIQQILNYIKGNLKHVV
Chain of SIRT6 (Q8N6T7 whole entry): as the sequence (Q8N6T7 whole entry V70A/F86A) above, with A70V, A86F counted along it
Chain of HDAC10 (Q969S8 whole entry, species assumed): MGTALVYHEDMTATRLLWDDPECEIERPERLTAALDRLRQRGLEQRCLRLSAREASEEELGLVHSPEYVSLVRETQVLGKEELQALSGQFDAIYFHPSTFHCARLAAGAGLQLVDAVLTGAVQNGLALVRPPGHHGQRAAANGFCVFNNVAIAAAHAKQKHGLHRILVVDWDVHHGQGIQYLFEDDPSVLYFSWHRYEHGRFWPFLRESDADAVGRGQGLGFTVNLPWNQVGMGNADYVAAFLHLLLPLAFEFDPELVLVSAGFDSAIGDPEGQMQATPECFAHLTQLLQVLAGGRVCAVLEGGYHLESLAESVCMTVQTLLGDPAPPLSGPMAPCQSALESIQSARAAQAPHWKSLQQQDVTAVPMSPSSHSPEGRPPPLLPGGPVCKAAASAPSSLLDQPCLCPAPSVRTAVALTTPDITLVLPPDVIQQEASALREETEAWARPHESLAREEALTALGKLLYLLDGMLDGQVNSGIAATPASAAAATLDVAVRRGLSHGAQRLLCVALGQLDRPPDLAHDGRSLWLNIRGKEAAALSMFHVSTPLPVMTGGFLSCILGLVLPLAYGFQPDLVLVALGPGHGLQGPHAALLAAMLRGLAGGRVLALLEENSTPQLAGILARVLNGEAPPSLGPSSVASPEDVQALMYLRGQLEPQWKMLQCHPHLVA
Chain of SIRT1 (Q96EB6 whole entry, species assumed): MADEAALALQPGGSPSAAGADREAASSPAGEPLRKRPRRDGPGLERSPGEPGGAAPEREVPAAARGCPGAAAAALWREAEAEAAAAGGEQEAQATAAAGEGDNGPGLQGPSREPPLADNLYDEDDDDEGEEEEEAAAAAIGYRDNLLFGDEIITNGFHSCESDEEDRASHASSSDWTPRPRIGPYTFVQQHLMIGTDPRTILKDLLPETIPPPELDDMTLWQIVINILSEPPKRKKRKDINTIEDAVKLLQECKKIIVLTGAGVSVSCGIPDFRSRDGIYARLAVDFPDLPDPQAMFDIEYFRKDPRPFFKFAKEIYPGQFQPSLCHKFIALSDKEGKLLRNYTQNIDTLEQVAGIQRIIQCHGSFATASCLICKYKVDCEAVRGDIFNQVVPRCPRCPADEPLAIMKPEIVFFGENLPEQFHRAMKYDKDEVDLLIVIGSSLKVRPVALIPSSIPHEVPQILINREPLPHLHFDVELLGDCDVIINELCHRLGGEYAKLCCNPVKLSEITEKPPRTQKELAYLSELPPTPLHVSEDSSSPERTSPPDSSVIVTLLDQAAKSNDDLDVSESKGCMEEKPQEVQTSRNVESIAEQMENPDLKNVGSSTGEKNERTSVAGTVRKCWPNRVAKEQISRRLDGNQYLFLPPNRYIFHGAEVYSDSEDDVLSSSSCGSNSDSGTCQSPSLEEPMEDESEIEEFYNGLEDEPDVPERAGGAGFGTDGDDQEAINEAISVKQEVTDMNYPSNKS

With `Br.CN(C)C(SCCCCCCn1cnc2c(-c3cc(Br)c(Br)[nH]3)nccc21)=[N+](C)C.[Cl-]` [Compound 8a], the IC50 in assay [1] was 80.5 ± 1.91 µM; in assay [2] it was more than 200 µM; in [3], more than 200 µM; in assay [4], 112 ± 2.05 µM; in assay [5] it was 96.8 ± 1.98 µM; in assay [6], 102 ± 2.01 µM. The concentration for half-maximal inhibition (IC50) in assay [7] is more than 200 µM; in assay [8] (FDL assay), 79 ± 9 µM; in assay [9], 9.28 µM. Further, the “increase of IC50 to the mutant (V70A and F86A)” value in assay [8] (versus wild-type SIRT6) is recorded as “approximately 10 fold”. For the same molecule, the colony formation result in [10] was “much smaller and fewer colonies”. In assay [11], the “thermal stability of SIRT6” value is on record as “increased”.
